Literature values as cited in patent publication US20220090193A1, “ATTACHING NUCLEOTIDES TO A POLYNUCLEOTIDE WITH A POLYMERASE” (priority 2019, published 2022).

Settings: amino acid side chain

## NCCCC[C@H](N)C(=O)O [Lysine]
  pKa: 10.54
